Numbered stars: 1 amine (or outer) side, 2 acyl side, 3 side chain; on linkers, the order of the positions; unused ones are H or OH. Square brackets hold non-standard residues; d marks the D form. Side chains are listed from the residue outwards. Peptide text beside a SMILES is read from it. * marks the point of attachment. C18 diacid = O=C(O)CCCCCCCCCCCCCCCCC(=O)*; γGlu = O=C(O)[C@H](CCC(=O)[*:2])N[*:1]; AEEA = NCCOCCOCC(=O)O; Aib = CC(C)(N)C(=O)O
How the values were obtained:
human GLP-1 receptor = target: T1, human GLP-1 receptor (Homo sapiens, UniProt P43220); experiment: GLP-1 receptor binding, 125I-GLP-1 displacement SPA on isolated membranes; details: displacement of 125I-GLP-1 from membranes; read-out: IC50 GLP-1R
T1 construct: expressed in transfected cells; host or cells: BHK cells (parent BHKTS13), clone FCW467-12A/KZ10-1, with CRE luciferase
T1 sequence (P43220 24-463): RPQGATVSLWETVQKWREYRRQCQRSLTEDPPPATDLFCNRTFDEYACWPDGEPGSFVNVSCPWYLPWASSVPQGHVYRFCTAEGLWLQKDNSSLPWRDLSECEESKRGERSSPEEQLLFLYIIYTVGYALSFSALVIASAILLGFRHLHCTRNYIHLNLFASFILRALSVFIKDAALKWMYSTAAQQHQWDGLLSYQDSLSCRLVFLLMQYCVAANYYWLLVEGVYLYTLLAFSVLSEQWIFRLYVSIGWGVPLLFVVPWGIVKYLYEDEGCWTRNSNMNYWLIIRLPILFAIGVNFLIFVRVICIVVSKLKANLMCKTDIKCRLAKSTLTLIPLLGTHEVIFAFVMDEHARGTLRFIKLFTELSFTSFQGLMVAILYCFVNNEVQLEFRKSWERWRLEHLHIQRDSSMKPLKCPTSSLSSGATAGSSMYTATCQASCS
Procedure: The purpose of this assay was to test the in vitro receptor binding activity of the glucagon derivatives of the invention. The receptor binding is a measure of affinity of a compound for the human GLP-1 receptor.
The receptor binding of each compound to the human GLP-1 receptor was measured in a displacement binding assay. In this type of assay a labelled ligand (in this case 125I-GLP-1) is bound to the receptor. Each derivative was added in a series of concentrations to isolated membranes containing the human GLP-1 receptor and displacement of the labelled ligand was monitored. The receptor binding was reported as the concentration at which half of the labelled ligand was displaced from the receptor, the IC50 value.
In order to test the binding of the derivatives to albumin, the assay may be performed in a very low concentration of serum albumin (max. 0.001% final assay concentration) as well as in the presence of a higher concentration of serum albumin (2.0% final assay concentration). An increase of the IC50 value, in the presence of serum albumin indicates an affinity to serum albumin and represents a method to predict a protracted pharmacokinetic profile of the test substance in animal models.
The following chemicals were used in the assay: DMEM w/o phenol red (Gibco 11880-028), Pen/strep (Invitrogen 15140-122), G418 (Invitrogen 10131-027), 1 M Hepes (Gibco 15630), EDTA (Invitrogen 15575-038), PBS (Invitrogen 14190-094), fetal calf serum (Invitrogen 16140-071), EGTA, MgCl2 (Merck 1.05832.1000), Tween 20 (Amresco 0850C335), SPA particles (wheat germ agglutinin (WGA) SPA beads, Perkin Elmer RPNQ0001), [125I]-GLP-1]-(7-36)NH2 (produced in-house), OptiPlate™-96 (Perkin Elmer).
Buffer 1 consisted of 20 mM Na-HEPES plus 10 mM EDTA and pH was adjusted to 7.4.
Buffer 2 consisted of 20 mM Na-HEPES plus 0.1 mM EDTA and pH was adjusted to 7.4.
Assay buffer consisted of 50 mM HEPES supplemented with 5 mM EGTA, 5 mM MgCl2, 0.005% Tween 20 and pH was adjusted to 7.4.
The cells used in this assay (clone FCW467-12A) were BHK cells with BHKTS13 as a parent cell line. The cells express the human GLP-1 receptor.
The cells were grown at 5% CO2 in DMEM, 10% fetal calf serum, 1% Pen/Strep (Penicillin/Streptomycin) and 1.0 mg/ml of the selection marker G418. To make a membrane preparation the cells were grown to approximately 80% confluence. The cells were washed twice in phosphate-buffered saline and harvested. The cells were pelleted using a brief centrifugation and the cell pellet was kept on ice. The cell pellet was homogenised with ULTRA-THURRAX dispersing instrument for 20-30 sec in a suitable amount of buffer 1 (e.g. 10 ml). The homogenate was centrifuged for 15 min. The pellet was re-suspended (homogenised) in 10 ml buffer 2 and centrifuged. This step was repeated once more. The resulting pellet was re-suspended in buffer 2 and the protein concentration was determined. The membranes were aliquoted and stored at minus 80° C.
1. For the receptor binding assay, 50 μl of the assay buffer was added to each well of an assay plate.
2. Test compounds were serially diluted to give the following concentrations: 8×10EE-7 M, 8×10EE-8 M, 8×10EE-9 M, 8×10EE-10 M, 8×10EE-11 M, 8×10EE-12 M and 8×10EE-13 M. Twenty-five μl were added to appropriate wells in the assay plate.
3. Cell membrane aliquots were thawed and diluted to their working concentration. Fifty μl were added to each well in the assay plate.
4. WGA SPA beads were suspended in assay buffer at 20 mg/ml. The suspension was diluted to 10 mg/ml in assay buffer just prior to addition to the assay plate. Fifty μl were added to each well in the assay plate.
5. The incubation was started by adding 25 μl of 480 pM solution of [125I]-GLP-1]-(7-36)NH2 to each well of the assay plate. A 25 μl aliquot was reserved for measuring total counts/well.
6. The assay plate was incubated for 2 h at 30° C.
7. The assay plate was centrifuged for 10 min.
8. The assay plate was read in a Perkin Elmer TopCount NXT instrument. […]

[1] = Thioflavin T (ThT) fibrillation assay for physical stability; type: physicochemical; details: 250 μM in 10 mM HEPES buffer, pH 7.5, 37° C., shaking 960 rpm
Excerpt: The purpose of this assay was to assess the physical stability of the glucagon derivatives of the invention in aqueous solutions.
Low physical stability of a peptide may lead to amyloid fibril formation, which is observed as well-ordered, thread-like macromolecular structures in the sample, which eventually may lead to gel formation. This has traditionally been measured by visual inspection of the sample. However, that kind of measurement is very subjective and depending on the observer. Therefore, the application of a small molecule indicator probe is much more advantageous. Thioflavin T (ThT) is such a probe and has a distinct fluorescence signature when binding to fibrils [Naiki et al; Anal. Biochem. 1989 177 244-249; LeVine; Methods. Enzymol. 1999 309 274-284].
The time course for fibril formation can be described by a sigmoidal curve with the following expression [Nielsen et al; Biochemistry 2001 40 6036-6046]:
Here, as depicted in FIG. 1, F is the ThT fluorescence at the time t. The constant t0 is the time needed to reach 50% of maximum fluorescence. The two important parameters describing fibril formation are the lag-time calculated by t0−2τ and the apparent rate constant kapp 1/τ.
Samples were prepared freshly before each assay. Each sample composition is described in the legends. The pH of the sample was adjusted to the desired value using appropriate amounts of concentrated NaOH and HCl. Thioflavin T was added to the samples from a stock solution in H2O to a final concentration of 1 μM.
Sample aliquots of 200 μl (250 μM of the glucagon derivative/analogue in 10 mM HEPES buffer, pH 7.5) were placed in a 96 well microtiter plate (Packard OptiPlate™-96, white polystyrene). Usually, four or eight replica of each sample (corresponding to one test condition) were placed in one column of wells. The plate was sealed with Scotch Pad (Qiagen).
Incubation at given temperature, shaking and measurement of the ThT fluorescence emission were done in a Fluoroskan Ascent FL fluorescence plate reader (Thermo Labsystems). The temperature was set to 37° C. and the plate was incubated with orbital shaking adjusted to 960 rpm with an amplitude of 1 mm. Fluorescence measurement was done using excitation through a 444 nm filter and measurement of emission through a 485 nm filter.
Each run was initiated by incubating the plate at the assay temperature for 10 min. The plate was measured every 20 minutes for a desired period of time. Between each measurement, the plate was shaken and heated as described.
After completion of the ThT assay the four or eight replica of each sample was pooled and centrifuged at 20000 rpm for 30 minutes at 18° C. The supernatant was filtered through a 0.22 μm filter and an aliquot was transferred to a HPLC vial.
The concentration of peptide in the initial sample and in the filtered supernatant was determined by reverse phase HPLC using an appropriate standard as reference. The percentage fraction the concentration of the filtered sample constituted of the initial sample concentration was reported as the recovery.
The measurement points were saved in Microsoft Excel format for further processing and curve drawing and fitting was performed using GraphPad Prism. The background emission from ThT in the absence of fibrils was negligible. The data points were typically a mean of four or eight samples.
The data set may be fitted to Eq. (1).

IC50 (human GLP-1 receptor)	THT assay Lag time (Ex. 76) [1]	SMILES
0.2 nM	8 h	CC(C)C[C@H](NC(=O)[C@H](CC(C)C)NC(=O)[C@H](Cc1c[nH]c2ccccc12)NC(=O)[C@H](CCC(N)=O)NC(=O)[C@@H](NC(=O)[C@H](Cc1ccccc1)NC(=O)[C@H](CCC(=O)O)NC(=O)[C@H](CCCNC(=N)N)NC(=O)[C@H](C)NC(=O)[C@H](C)NC(=O)[C@H](CCCNC(=N)N)NC(=O)[C@H](CO)NC(=O)[C@H](CC(=O)O)NC(=O)[C@H](CC(C)C)NC(=O)[C@H](Cc1ccc(O)cc1)NC(=O)[C@H](CCCCN)NC(=O)[C@H](CO)NC(=O)[C@H](CC(C)C)NC(=O)[C@H](CC(=O)O)NC(=O)[C@H](CO)NC(=O)[C@@H](NC(=O)[C@H](Cc1ccccc1)NC(=O)[C@@H](NC(=O)CNC(=O)[C@H](CCC(N)=O)NC(=O)C(C)(C)NC(=O)[C@@H](N)Cc1c[nH]cn1)[C@@H](C)O)[C@@H](C)O)C(C)C)C(=O)N[C@@H](CC(N)=O)C(=O)N[C@@H](CCCCNC(=O)CC[C@H](NC(=O)CC[C@H](NC(=O)COCCOCCNC(=O)COCCOCCNC(=O)CC[C@H](NC(=O)CCCCCCCCCCCCCCCCC(=O)O)C(=O)O)C(=O)O)C(=O)O)C(N)=O [Example 9, N^ε29-[(4S)-4-carboxy-4-[[(4S)-4-carboxy-4-[[2-[2-[2-[[2-[2-[2-[[(4S)-4-carboxy-4-(17-carboxyheptadecanoylamino)butanoyl]amino]ethoxy]ethoxy]acetyl]amino]ethoxy]ethoxy]acetyl]amino]butanoyl]amino]butanoyl]-[Aib2,Leu10,Ala18,Arg20,Glu21,Leu27,Lys29]-Glucagon amide] (H-H[Aib]QGTFTSDLSKYLDSRAAREFVQWLLNK([γGlu-γGlu-AEEA-AEEA-γGlu-C18 diacid])-NH2; N-terminus assumed)
0.2 nM		CC(C)C[C@H](NC(=O)[C@H](Cc1ccc(O)cc1)NC(=O)[C@H](CCCCN)NC(=O)[C@H](CO)NC(=O)[C@H](CC(C)C)NC(=O)[C@H](CC(=O)O)NC(=O)[C@H](CO)NC(=O)[C@@H](NC(=O)[C@H](Cc1ccccc1)NC(=O)[C@@H](NC(=O)CNC(=O)[C@H](CCC(N)=O)NC(=O)C(C)(C)NC(=O)[C@@H](N)Cc1c[nH]cn1)[C@@H](C)O)[C@@H](C)O)C(=O)N[C@@H](CC(=O)O)C(=O)N[C@@H](C)C(=O)N[C@@H](CCCNC(=N)N)C(=O)N[C@@H](CCCNC(=N)N)C(=O)N[C@@H](C)C(=O)N[C@@H](CCCNC(=N)N)C(=O)N[C@@H](CC(=O)O)C(=O)N[C@@H](Cc1ccccc1)C(=O)N[C@H](C(=O)N[C@@H](CCC(N)=O)C(=O)N[C@@H](Cc1c[nH]c2ccccc12)C(=O)N[C@@H](CC(C)C)C(=O)N[C@@H](CC(C)C)C(=O)N[C@@H](CCCCNC(=O)COCCOCCNC(=O)COCCOCCNC(=O)CC[C@H](NC(=O)CC[C@H](NC(=O)CC[C@H](NC(=O)CCCCCCCCCCCCCCCCC(=O)O)C(=O)O)C(=O)O)C(=O)O)C(=O)N[C@H](C(N)=O)[C@@H](C)O)C(C)C [Example 58, N^ε28-[2-[2-[2-[[2-[2-[2-[[(4S)-4-carboxy-4-[[(4S)-4-carboxy-4-[[(4S)-4-carboxy-4-(17-carboxyheptadecanoylamino)butanoyl]amino]butanoyl]amino]butanoyl]amino]ethoxy]ethoxy]acetyl]amino]ethoxy]ethoxy]acetyl]-[Aib2,Leu10,Ala16,Arg20,Leu27,Lys28]-Glucagon amide] (H-H[Aib]QGTFTSDLSKYLDARRARDFVQWLLK([AEEA-AEEA-γGlu-γGlu-γGlu-C18 diacid])T-NH2; N-terminus assumed)
0.2 nM		CC(C)C[C@H](NC(=O)[C@H](Cc1ccc(O)cc1)NC(=O)[C@H](CCCCN)NC(=O)[C@H](CO)NC(=O)[C@@H](NC(=O)[C@H](CC(=O)O)NC(=O)[C@H](CO)NC(=O)[C@@H](NC(=O)[C@H](Cc1ccccc1)NC(=O)[C@@H](NC(=O)CNC(=O)[C@H](CCC(N)=O)NC(=O)C(C)(C)NC(=O)[C@@H](N)Cc1c[nH]cn1)[C@@H](C)O)[C@@H](C)O)C(C)C)C(=O)N[C@@H](CC(=O)O)C(=O)N[C@@H](C)C(=O)N[C@@H](CCCNC(=N)N)C(=O)N[C@@H](CCCNC(=N)N)C(=O)N[C@@H](C)C(=O)N[C@@H](CCC(N)=O)C(=O)N[C@@H](CC(=O)O)C(=O)N[C@@H](Cc1ccccc1)C(=O)N[C@H](C(=O)N[C@@H](CCC(N)=O)C(=O)N[C@@H](Cc1c[nH]c2ccccc12)C(=O)N[C@@H](CC(C)C)C(=O)N[C@@H](CC(C)C)C(=O)N[C@@H](CCCCNC(=O)COCCOCCNC(=O)COCCOCCNC(=O)CC[C@H](NC(=O)CC[C@H](NC(=O)CC[C@H](NC(=O)CCCCCCCCCCCCCCCCC(=O)O)C(=O)O)C(=O)O)C(=O)O)C(=O)N[C@H](C(N)=O)[C@@H](C)O)C(C)C [Example 70, N^ε28-[2-[2-[2-[[2-[2-[2-[[(4S)-4-carboxy-4-[[(4S)-4-carboxy-4-[[(4S)-4-carboxy-4-(17-carboxyheptadecanoylamino)butanoyl]amino]butanoyl]amino]butanoyl]amino]ethoxy]ethoxy]acetyl]amino]ethoxy]ethoxy]acetyl]-[Aib2,Val10,Ala16,Leu27,Lys28]-Glucagon amide] (H-H[Aib]QGTFTSDVSKYLDARRAQDFVQWLLK([AEEA-AEEA-γGlu-γGlu-γGlu-C18 diacid])T-NH2)

Source: US9474790B2, “Stable, protracted GLP-1/glucagon receptor co-agonists for medical use” (Novo Nordisk A/S, priority 2013, dated 2016)
